Measurements: PubChem BioAssay (NCI)
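Five concentrations, 48 hours, 96-well plates. Abbreviation: GI50, concentration required for 50% inhibition of growth. The concentration for full growth arrest is given as TGI.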

What was measured:
Test in all cases: NCI tumour cell line growth inhibition, 48 h; in the data active = GI50 below about 0.43 µM; inactive = the rest
[1] = tested on: SF-539 CNS
[2] = tested on: RPMI-8226 leukemia
[3] = tested on: SNB-19 CNS
[4] = tested on: A549 NSCLC
[5] = tested on: IGROV1 ovarian
[6] = tested on: SW-620 colon
[7] = tested on: SNB-75 CNS
[8] = tested on: U251 CNS
[9] = tested on: NCI/ADR-RES ovarian
[10] = tested on: COLO 205 colon
[11] = tested on: MALME-3M melanoma
[12] = tested on: MOLT-4 leukemia
[13] = tested on: T-47D breast
[14] = tested on: UACC-257 melanoma
[15] = tested on: HOP-62 NSCLC
[16] = tested on: SK-OV-3 ovarian
[17] = tested on: A498 renal
[18] = tested on: M14 melanoma
[19] = tested on: ACHN renal
[20] = tested on: MDA-MB-231 breast
[21] = tested on: NCI-H226 lung
[22] = tested on: NCI-H522 lung
[23] = tested on: 786-0 renal
[24] = tested on: TK-10 renal
[25] = tested on: HCC-2998 colon
[26] = tested on: SK-MEL-2 melanoma
[27] = tested on: HL-60(TB) leukemia
[28] = tested on: KM12 colon
[29] = tested on: K-562 leukemia
[30] = tested on: OVCAR-3 ovarian
[31] = tested on: UO-31 renal
[32] = tested on: BT-549 breast
[33] = tested on: MCF7 breast
[34] = tested on: HS 578T breast
[35] = tested on: PC-3 prostate
[36] = tested on: DU-145 prostate
[37] = tested on: SK-MEL-5 melanoma
[38] = tested on: UACC-62 melanoma
[39] = tested on: OVCAR-5 ovarian
[40] = tested on: NCI-H460 lung
[41] = tested on: CAKI-1 renal
[42] = tested on: SN12C renal
[43] = tested on: EKVX NSCLC
[44] = tested on: SF-268 CNS
[45] = tested on: OVCAR-8 ovarian
[46] = tested on: NCI-H23 lung
[47] = tested on: CCRF-CEM leukemia
[48] = tested on: HOP-92 NSCLC
[49] = tested on: HCT-15 colon
[50] = tested on: SK-MEL-28 melanoma
[51] = tested on: LOX IMVI melanoma
[52] = tested on: HT29 colon
[53] = tested on: MDA-MB-435
[54] = tested on: SR leukemia
[55] = tested on: HCT-116 colon
[56] = tested on: SF-295 CNS
[57] = tested on: OVCAR-4 ovarian
[58] = tested on: RXF 393 renal

CS(=O)(=O)CCNCc1nc(-c2ccc3ncnc(Nc4ccc(OCc5cccc(C(F)(F)F)c5)cc4)c3c2)cs1
> 21.6 µM: TGI [16]
15.8 µM: TGI [48]
> 22.6 µM: TGI [8]
15.7 µM: TGI [7]
12.9 µM: TGI [15]
> 22.1 µM: TGI [26]
inactive: GI50 [1] > 25 µM | GI50 [2] > 25 µM | GI50 [3] 11.1 µM | GI50 [4] > 22 µM | GI50 [5] 5.4 µM | GI50 [6] > 25 µM | GI50 [7] 4.86 µM | GI50 [8] 5.9 µM | GI50 [9] > 25 µM | GI50 [10] > 23.9 µM | GI50 [11] 14 µM | GI50 [12] > 25 µM | GI50 [13] 5.42 µM | GI50 [14] > 25 µM | GI50 [15] 5.5 µM | GI50 [16] 6.01 µM | GI50 [17] 4.1 µM | GI50 [18] > 25 µM | GI50 [19] > 21.9 µM | GI50 [20] 12.6 µM | GI50 [21] > 25 µM | GI50 [22] 9.13 µM | GI50 [23] > 16.5 µM | GI50 [24] 1.67 µM | GI50 [25] > 25 µM | GI50 [26] 8.7 µM | GI50 [27] > 25 µM | GI50 [28] > 25 µM | GI50 [29] > 25 µM | GI50 [30] > 17.3 µM | GI50 [31] > 22.6 µM | GI50 [32] > 25 µM | GI50 [33] > 17.5 µM | GI50 [34] 9.11 µM | GI50 [35] > 23.6 µM | GI50 [36] > 17.7 µM | GI50 [37] > 21.6 µM | GI50 [38] > 25 µM | GI50 [39] > 25 µM | GI50 [40] > 25 µM | GI50 [41] > 25 µM | GI50 [42] > 25 µM | GI50 [43] > 20.4 µM | GI50 [44] 12.8 µM | GI50 [45] 11.1 µM | GI50 [46] 12.5 µM | GI50 [47] > 25 µM | GI50 [48] 3.68 µM | GI50 [49] > 25 µM | GI50 [50] > 20.6 µM | GI50 [51] > 25 µM | GI50 [52] > 17.6 µM | GI50 [53] > 25 µM | GI50 [54] > 22.2 µM | GI50 [55] > 18.7 µM | GI50 [56] 9.45 µM | GI50 [57] > 25 µM | GI50 [58] 5.57 µM
> 25 µM: TGI [1] | TGI [2] | TGI [3] | TGI [4] | TGI [5] | TGI [6] | TGI [9] | TGI [10] | TGI [11] | TGI [12] | TGI [13] | TGI [14] | TGI [17] | TGI [18] | TGI [19] | TGI [20] | TGI [21] | TGI [22] | TGI [23] | TGI [24] | TGI [25] | TGI [27] | TGI [28] | TGI [29] | TGI [30] | TGI [31] | TGI [32] | TGI [33] | TGI [34] | TGI [35] | TGI [36] | TGI [37] | TGI [38] | TGI [39] | TGI [40] | TGI [41] | TGI [42] | TGI [43] | TGI [44] | TGI [45] | TGI [46] | TGI [47] | TGI [49] | TGI [50] | TGI [51] | TGI [52] | TGI [53] | TGI [54] | TGI [55] | TGI [56] | TGI [57] | TGI [58]
